Measurements from patent publication US9580463B2 (BRISTOL-MYERS SQUIBB COMPANY, priority 2013, dated 2017).

These compounds were tested on HCV genotype 1b (Con1) replicon in HUH-7 cells (assay: HCV replicon luciferase reporter assay, genotype 1b). Details: Hepatitis C virus, 72 h, genotype 1b replicon, 3 days incubation, read-out: LE_1b (EC50).
Format: cell-based
Text: An HCV replicon whole cell system was established as described by Lohmann V, Korner F, Koch J, Herian U, Theilmann L, Bartenschlager R., Science 285(5424):110-3 (1999) and modified to introduce a luciferase reporter, as first described by Krieger et al (Krieger N, Lohmann V, and Bartenschlager R, J. Virol. 75(10):4614-4624 (2001)). CDNA encoding a humanized form of the Renilla luciferase gene and a linker sequence fused directly to the 3′-end of the luciferase gene were introduced into the replicon construct using an Asc1 restriction site located in core, directly upstream of the neomycin marker gene. The adaptive mutation at position 1179 (serine to isoleucine) was also introduced (Blight K J, Kolykhalov, A A, Rice, C M, Science 290(5498):1972-1974). A stable cell line constitutively expressing this HCV replicon construct was generated by first linearizing plasmid DNAs with ScaI. RNA transcripts were synthesized in vitro using the T7 MegaScript transcription kit (Ambion, Austin, Tex.) according to manufacturer's directions. In vitro transcripts of the cDNA were transfected into the human hepatoma cell line, HUH-7. […] Resulting cell lines were characterized for positive and negative strand RNA production and protein production over time. […]
HCV replicon luciferase assays were developed to monitor the inhibitory effects of compounds described in the disclosure on HCV genotypes 1a and 1b viral replication. HUH-7 cells, constitutively expressing the HCV replicon, were grown in Dulbecco's Modified Eagle Media (DMEM) (Gibco-BRL) containing 10% Fetal calf serum (FCS) (Sigma) and 1 mg/mL G418 (Gibco-BRL). Compounds were serially diluted 3 folds in DMSO for a twenty-point titration and subsequently transferred to sterile 384-well tissue-culture treated plates (Corning cat #3571). The plates were then seeded with 50 μL of cells at a density of 3.0×10^3 cells/well in DMEM containing 4% FCS (final DMSO concentration at 0.5%). After 3 days incubation at 37° C., cells were analyzed for Renilla Luciferase activity using the EnduRen as substrate (Promega cat #E6485). The EnduRen substrate was diluted in DMEM and then added to the plates to a final concentration of 7.5 μM. The plates were incubated for 2 hrs at 37° C. and then read immediately for 30 seconds with Viewlux Imager (PerkinElmer) using a luminescence program. To assess cytotoxicity of compounds, CC50 values were generated by multiplexing the EnduRen-containing plates with Cell Titer-Blue (Promega, cat # G8082). Cell-Titer Blue (3 μL) was added to each well and incubated for 8 hrs at 37° C. The fluorescence signal from each well was read, with an excitation wavelength at 525/10 nm and an emission wavelength of 598/10 nm, using the Viewlux Imager.
The EC50 values for compounds were calculated by using a four-parameter logistic equation: y=A+((B−A)/(1+((C/x)^D))), where A and B denotes minimal and maximal % inhibition, respectively, C is the EC50, D is the hill slope and x represents compound concentration.
Compound `COC[C@@H]1C[C@H](C)CC/C=C\[C@@H]2C[C@@]2(C(=O)NS(=O)(=O)C2(C)CC2)NC(=O)[C@@H]2C[C@@H](Oc3nc4cc(OC)c(F)cc4nc3C(F)(F)F)CN2C(=O)[C@H]1NC(=O)OC(C)(C)C(F)(F)F` [Compound 1048, 1,1,1-trifluoro-2-methylpropan-2-yl ((2R,6S,7R,9R,13aS,14aR,16aS,Z)-2-((6-fluoro-7-methoxy-3-(trifluoromethyl)quinoxalin-2-yl)oxy)-7-(methoxymethyl)-9-methyl-14a-(((1-methylcyclopropyl)sulfonyl)carbamoyl)-5,16-dioxo-1,2,3,5,6,7,8,9,10,11,13a,14,14a,15,16,16a-hexadecahydrocyclopropa[e]pyrrolo[1,2-a][1,4]diazacyclopentadecin-6-yl)carbamate] has an EC50 of 0.27 nM.

Same assay, conditions: Hepatitis C virus, 72 h, genotype 1b replicon, 3 days incubation, read-out: LE_1b (EC50, range)
In the case of `COC[C@@H]1C[C@@H](C)CC/C=C\[C@@H]2C[C@@]2(C(=O)NS(=O)(=O)C2(C)CC2)NC(=O)[C@@H]2C[C@@H](Oc3nc4cc(OC)c(F)cc4nc3C(F)(F)F)CN2C(=O)[C@H]1NC(=O)OC(C)(C)C(F)(F)F` [Compound 1046, 1,1,1-trifluoro-2-methylpropan-2-yl ((2R,6S,7R,9S,13aS,14aR,16aS,Z)-2-((6-fluoro-7-methoxy-3-(trifluoromethyl)quinoxalin-2-yl)oxy)-7-(methoxymethyl)-9-methyl-14a-(((1-methylcyclopropyl)sulfonyl)carbamoyl)-5,16-dioxo-1,2,3,5,6,7,8,9,10,11,13a,14,14a,15,16,16a-hexadecahydrocyclopropa[e]pyrrolo[1,2-a][1,4]diazacyclopentadecin-6-yl)carbamate], the EC50 is reported as 1.01 to 5 nM.
With `CCOc1ccc2nc(C(F)(F)F)c(O[C@@H]3C[C@H]4C(=O)N[C@]5(C(=O)NS(=O)(=O)C6(C)CC6)C[C@H]5/C=C\CC[C@H](C)C[C@@H](COC)[C@H](NC(=O)OC(C)(C)C(F)(F)F)C(=O)N4C3)nc2c1` [Compound 1053, 1,1,1-trifluoro-2-methylpropan-2-yl ((2R,6S,7R,9S,13aS,14aR,16aS,Z)-2-((7-ethoxy-3-(trifluoromethyl)quinoxalin-2-yl)oxy)-7-(methoxymethyl)-9-methyl-14a-(((1-methylcyclopropyl)sulfonyl)carbamoyl)-5,16-dioxo-1,2,3,5,6,7,8,9,10,11,13a,14,14a,15,16,16a-hexadecahydrocyclopropa[e]pyrrolo[1,2-a][1,4]diazacyclopentadecin-6-yl)carbamate] the EC50 was 1.01 to 5 nM.
`CCOc1cnc(O[C@@H]2C[C@H]3C(=O)N[C@]4(C(=O)NS(=O)(=O)C5(C)CC5)C[C@H]4/C=C\CC[C@@H](C)C[C@@H](COC)[C@H](NC(=O)OC(C)(C)C(C)(F)F)C(=O)N3C2)c2ccc(OC)cc12` [Compound 1068, 3,3-difluoro-2-methylbutan-2-yl ((2R,6S,7R,9R,13aS,14aR,16aS,Z)-2-((4-ethoxy-6-methoxyisoquinolin-1-yl)oxy)-7-(methoxymethyl)-9-methyl-14a-(((1-methylcyclopropyl)sulfonyl)carbamoyl)-5,16-dioxo-1,2,3,5,6,7,8,9,10,11,13a,14,14a,15,16,16a-hexadecahydrocyclopropa[e]pyrrolo[1,2-a][1,4]diazacyclopentadecin-6-yl)carbamate] showed an EC50 of 0.1 to 0.5 nM.
Work on `CCOc1ccc2nc(C(F)(F)F)c(O[C@@H]3C[C@H]4C(=O)N[C@]5(C(=O)NS(=O)(=O)C6(C)CC6)C[C@H]5/C=C\CC[C@@H](C)C[C@@H](COC)[C@H](NC(=O)OC(C)(C)C)C(=O)N4C3)nc2c1` [Compound 1050, tert-butyl ((2R,6S,7R,9R,13aS,14aR,16aS,Z)-2-((7-ethoxy-3-(trifluoromethyl)quinoxalin-2-yl)oxy)-7-(methoxymethyl)-9-methyl-14a-(((1-methylcyclopropyl)sulfonyl)carbamoyl)-5,16-dioxo-1,2,3,5,6,7,8,9,10,11,13a,14,14a,15,16,16a-hexadecahydrocyclopropa[e]pyrrolo[1,2-a][1,4]diazacyclopentadecin-6-yl)carbamate] yielded an EC50 of 0.1 to 0.5 nM.
`COC[C@@H]1C[C@H](C)CC/C=C\[C@@H]2C[C@@]2(C(=O)NS(=O)(=O)C2(C)CC2)NC(=O)[C@@H]2C[C@@H](Oc3nc4cc(OC)c(F)cc4nc3C(F)(F)F)CN2C(=O)[C@H]1NC(=O)OC(C)(C)C(F)(F)F` [Compound 1048, 1,1,1-trifluoro-2-methylpropan-2-yl ((2R,6S,7R,9R,13aS,14aR,16aS,Z)-2-((6-fluoro-7-methoxy-3-(trifluoromethyl)quinoxalin-2-yl)oxy)-7-(methoxymethyl)-9-methyl-14a-(((1-methylcyclopropyl)sulfonyl)carbamoyl)-5,16-dioxo-1,2,3,5,6,7,8,9,10,11,13a,14,14a,15,16,16a-hexadecahydrocyclopropa[e]pyrrolo[1,2-a][1,4]diazacyclopentadecin-6-yl)carbamate] showed an EC50 of 0.1 to 0.5 nM.
Work on `CCOc1cnc(O[C@@H]2C[C@H]3C(=O)N[C@]4(C(=O)NS(=O)(=O)C5(C)CC5)C[C@H]4/C=C\CC[C@@H](C)C[C@@H](COC)[C@H](NC(=O)OC(C)(C)C(F)(F)F)C(=O)N3C2)c2ccc(OC)cc12` [Compound 1066, 1,1,1-trifluoro-2-methylpropan-2-yl ((2R,6S,7R,9R,13aS,14aR,16aS,Z)-2-((4-ethoxy-6-methoxyisoquinolin-1-yl)oxy)-7-(methoxymethyl)-9-methyl-14a-(((1-methylcyclopropyl)sulfonyl)carbamoyl)-5,16-dioxo-1,2,3,5,6,7,8,9,10,11,13a,14,14a,15,16,16a-hexadecahydrocyclopropa[e]pyrrolo[1,2-a][1,4]diazacyclopentadecin-6-yl)carbamate] yielded an EC50 of 0.1 to 0.5 nM.
Work on `COC[C@@H]1C[C@H](C)CC/C=C\[C@@H]2C[C@@]2(C(=O)NS(=O)(=O)C2(C)CC2)NC(=O)[C@@H]2C[C@@H](Oc3nc4cc(OC)c(F)cc4nc3C(F)(F)F)CN2C(=O)[C@H]1NC(=O)OC(C)(C)C` [Compound 1047, tert-butyl ((2R,6S,7R,9R,13aS,14aR,16aS,Z)-2-((6-fluoro-7-methoxy-3-(trifluoromethyl)quinoxalin-2-yl)oxy)-7-(methoxymethyl)-9-methyl-14a-(((1-methylcyclopropyl)sulfonyl)carbamoyl)-5,16-dioxo-1,2,3,5,6,7,8,9,10,11,13a,14,14a,15,16,16a-hexadecahydrocyclopropa[e]pyrrolo[1,2-a][1,4]diazacyclopentadecin-6-yl)carbamate] yielded an EC50 of 0.51 to 1 nM.
`COC[C@@H]1C[C@H](C)CC/C=C\[C@@H]2C[C@@]2(C(=O)NS(=O)(=O)C2(C)CC2)NC(=O)[C@@H]2C[C@@H](Oc3nc(OC)c4c(OC)cccc4n3)CN2C(=O)[C@H]1NC(=O)OC(C)(C)C(F)(F)F` [Compound 1060, 1,1,1-trifluoro-2-methylpropan-2-yl ((2R,6S,7R,9R,13aS,14aR,16aS,Z)-2-((4,5-dimethoxyquinazolin-2-yl)oxy)-7-(methoxymethyl)-9-methyl-14a-(((1-methylcyclopropyl)sulfonyl)carbamoyl)-5,16-dioxo-1,2,3,5,6,7,8,9,10,11,13a,14,14a,15,16,16a-hexadecahydrocyclopropa[e]pyrrolo[1,2-a][1,4]diazacyclopentadecin-6-yl)carbamate] gave an EC50 of 1.01 to 5 nM.
With `COC[C@@H]1C[C@H](C)CC/C=C\[C@@H]2C[C@@]2(C(=O)NS(=O)(=O)C2(C)CC2)NC(=O)[C@@H]2C[C@@H](Oc3nc(OC)c4c(OC)cccc4n3)CN2C(=O)[C@H]1NC(=O)OC(C)(C)C` [Compound 1061, tert-butyl ((2R,6S,7R,9R,13aS,14aR,16aS,Z)-2-((4,5-dimethoxyquinazolin-2-yl)oxy)-7-(methoxymethyl)-9-methyl-14a-(((1-methylcyclopropyl)sulfonyl)carbamoyl)-5,16-dioxo-1,2,3,5,6,7,8,9,10,11,13a,14,14a,15,16,16a-hexadecahydrocyclopropa[e]pyrrolo[1,2-a][1,4]diazacyclopentadecin-6-yl)carbamate] the EC50 was 5.01 to 35 nM.
